US20220296714A1, “TARGETED NANO-PHOTOMEDICINES FOR PHOTODYNAMIC THERAPY OF CANCER” (ERASMUS UNIVERSITY MEDICAL CENTER ROTTERDAM, priority 2009, published 2022)

Legend:
[1] = system: Leukemia cells K562; experiment: Intracellular photobleaching by confocal imaging under 405 nm laser; type: cell-based, human; settings: 1 μM sensitizer, 3 hrs incubation, 1-360 seconds
Procedure: Leukemia cells K562 were seeded at 800.000 cells/well in a 12 well tissue culture plate and treated with both free Ce6 (1 μM) and nanophotomedicine (NPM-3) prepared by using the same concentration of the sensitizer. Cells were incubated at 37° C. for 3 hrs before imaging using confocal microscope. Fluorescence imaging was carried out by exciting the sensitizer or nanophotomedicine taken-up by the cells using 405 nm laser. For recording the photobleaching at intracellular regions of the cancer cells, which has significant correlation to therapeutic effects, imaging is carried out after stipulated duration of laser irradiation from 1-360 seconds).

[2] = Photobleaching under laser irradiation, measured with a fluorescence spectrometer; type: physicochemical; settings: total dose 10 J cm^−2, nearly same initial fluorescence intensity
Procedure: Photobleaching characteristics of free Ce6 and nanophotomedicine (NPM-3) having nearly the same initial florescence intensity (that correlate with concentration of the drug) is compared using a fluorescence spectrometer. Laser irradiation of samples of both products was carried out under identical condition of a total dose of 10 J cm^−2. FIG. 4 illustrates the changes in the fluorescence emission characteristics of both the samples. […] In effect, this leads to long term stability of the drug within the construct even after extended duration of therapy.

Substance: chlorin e6 [free Ce6]
- duration of laser irradiation until intracellular fluorescence is bleached out [1]: 30 s
- photodose at which the drug is inactivated by photobleaching [2]: 2.5 J cm^−2
